# Measurements: ChEMBL document CHEMBL1697692, “Developing structure-activity relationships for the prediction of hepatotoxicity” (Chem Res Toxicol, 2010)
# System: Hepatotoxicity
# Assay: Literature-mined public compounds from Greene et al multi-species hepatotoxicity modelling dataset
row,Molecule,Hepatotoxicity
1,CN(C)[C@@H]1C(O)=C(C(N)=O)C(=O)[C@@]2(O)C(O)=C3C(=O)c4c(O)ccc(Cl)c4[C@@](C)(O)[C@H]3C[C@@H]12.Cl [CHLORTETRACYCLINE HYDROCHLORIDE],HH: Evidence of human hepatotoxicity
2,Cc1ccc(Cl)c(Nc2ccccc2C(=O)[O-])c1Cl.O.[Na+] [MECLOFENAMATE SODIUM],HH: Evidence of human hepatotoxicity
3,CCc1ccc(CCOc2ccc(CC3SC(=O)NC3=O)cc2)nc1 (stereo unspecified) [PIOGLITAZONE],WE: Weak evidence (<10 case reports) of human hepatotoxicity
4,Cl.Cl.O=C1c2c(O)ccc(O)c2C(=O)c2c(NCCNCCO)ccc(NCCNCCO)c21 [MITOXANTRONE HYDROCHLORIDE],HH: Evidence of human hepatotoxicity
5,Nc1ccc(Cc2ccc(N)cc2)cc1,AH: Evidence for animal hepatotoxicity but not tested in humans
6,CC(C(=O)O)c1ccc2oc(-c3ccc(Cl)cc3)nc2c1 (stereo unspecified) [BENOXAPROFEN],HH: Evidence of human hepatotoxicity
7,CC(C)(C)NCC(O)COc1cccc2c1CC(O)C(O)C2 (stereo unspecified) [NADOLOL],NE: No evidence of hepatotoxicity in any species
8,O=c1[nH]cnc2c1ncn2[C@H]1CC[C@@H](CO)O1 [DIDANOSINE],HH: Evidence of human hepatotoxicity
9,CC(C)(O/N=C(\C(=O)N[C@@H]1C(=O)N2C(C(=O)[O-])=C(C[n+]3ccccc3)CS[C@H]12)c1csc(N)n1)C(=O)O [CEFTAZIDIME],WE: Weak evidence (<10 case reports) of human hepatotoxicity
10,OC[C@@H](O)[C@@H](O)[C@H](O)[C@@H](O)CO [SORBITOL],NE: No evidence of hepatotoxicity in any species
11,CC(C(=O)O)c1cccc(C(=O)c2ccccc2)c1 (stereo unspecified) [KETOPROFEN],NE: No evidence of hepatotoxicity in any species
12,CC1CN(c2cc3c(cc2F)c(=O)c(C(=O)O)cn3-c2ccc(F)cc2F)CCN1 (stereo unspecified) [TEMAFLOXACIN],HH: Evidence of human hepatotoxicity
13,CC(=O)N1CCN(c2ccc(OCC3COC(Cn4ccnc4)(c4ccc(Cl)cc4Cl)O3)cc2)CC1 (stereo unspecified) [KETOCONAZOLE],HH: Evidence of human hepatotoxicity
14,CCCCNc1cc(C(=O)O)cc(S(N)(=O)=O)c1Oc1ccccc1 [BUMETANIDE],HH: Evidence of human hepatotoxicity
15,Nc1ccc(C(=O)O)c(O)c1 [AMINOSALICYLIC ACID],HH: Evidence of human hepatotoxicity
16,Brc1ccccc1 [BROMOBENZENE],HH: Evidence of human hepatotoxicity
17,"Clc1ccc(Cl)cc1 [1,4-DICHLOROBENZENE]",AH: Evidence for animal hepatotoxicity but not tested in humans
18,CCn1cc(C(=O)O)c(=O)c2ccc(C)nc21 [NALIDIXIC ACID],HH: Evidence of human hepatotoxicity
19,CN1Cc2c(N)cccc2C(c2ccccc2)C1 (stereo unspecified) [NOMIFENSINE],HH: Evidence of human hepatotoxicity
20,N=C(N)NCCN1CCCCCCC1.N=C(N)NCCN1CCCCCCC1.O=S(=O)(O)O [GUANETHIDINE SULFATE],HH: Evidence of human hepatotoxicity
21,N[C@@H](Cc1ccc(O)c(O)c1)C(=O)O [LEVODOPA],NE: No evidence of hepatotoxicity in any species
22,Cc1ccc(-c2nc3ccc(C)cn3c2CC(=O)N(C)C)cc1 [ZOLPIDEM],WE: Weak evidence (<10 case reports) of human hepatotoxicity

row,Molecule,Hepatotoxicity
1,O=C([O-])O.[Na+] [SODIUM BICARBONATE],AH: Evidence for animal hepatotoxicity but not tested in humans
2,N=C(N)NCCC[C@H](N)C(=O)O [ARGININE],NE: No evidence of hepatotoxicity in any species
3,CC(C)(C)NC(=O)[C@@H]1C[C@@H]2CCCC[C@@H]2CN1C[C@@H](O)[C@H](Cc1ccccc1)NC(=O)[C@H](CC(N)=O)NC(=O)c1ccc2ccccc2n1.CS(=O)(=O)O [SAQUINAVIR MESYLATE],HH: Evidence of human hepatotoxicity
4,CS(=O)(=O)O.Cc1ccc(N(CC2=NCCN2)c2cccc(O)c2)cc1 [PHENTOLAMINE MESYLATE],HH: Evidence of human hepatotoxicity
5,COc1cccc2c1C(=O)c1c(O)c3c(c(O)c1C2=O)C[C@@](O)(C(=O)CO)C[C@@H]3O[C@H]1C[C@H](N)[C@H](O)[C@H](C)O1.Cl [DOXORUBICIN HYDROCHLORIDE],HH: Evidence of human hepatotoxicity
6,CN(C)CCCN1c2ccccc2CCc2ccccc21.Cl [IMIPRAMINE HYDROCHLORIDE],HH: Evidence of human hepatotoxicity
7,CN(C)C(=O)C(CCN1CCC(O)(c2ccc(Cl)cc2)CC1)(c1ccccc1)c1ccccc1.Cl [LOPERAMIDE HYDROCHLORIDE],NE: No evidence of hepatotoxicity in any species
8,Oc1ncnc2[nH]ncc12 [ALLOPURINOL],HH: Evidence of human hepatotoxicity
9,CN(C)CCn1nnnc1SCC1=C(C(=O)O)N2C(=O)[C@@H](NC(=O)Cc3csc(N)n3)[C@H]2SC1.Cl.Cl [CEFOTIAM HYDROCHLORIDE],HH: Evidence of human hepatotoxicity
10,CCOc1nc2cccc(C(=O)O)c2n1Cc1ccc(-c2ccccc2-c2nnn[nH]2)cc1,WE: Weak evidence (<10 case reports) of human hepatotoxicity
11,CC(CN1c2ccccc2Sc2ccccc21)N(C)C.Cl (stereo unspecified) [PROMETHAZINE HYDROCHLORIDE],NE: No evidence of hepatotoxicity in any species
12,COc1cc2c(cc1OC)C(=O)C(CC1CCN(Cc3ccccc3)CC1)C2 (stereo unspecified) [DONEPEZIL],WE: Weak evidence (<10 case reports) of human hepatotoxicity
13,COCCCC/C(=N\OCCN)c1ccc(C(F)(F)F)cc1 [FLUVOXAMINE],HH: Evidence of human hepatotoxicity
14,CC(C)N(CCC(C(N)=O)(c1ccccc1)c1ccccn1)C(C)C.O=P(O)(O)O (stereo unspecified) [DISOPYRAMIDE PHOSPHATE],HH: Evidence of human hepatotoxicity
15,Cc1cc(NC(=O)C2=C(O)c3ccccc3S(=O)(=O)N2C)no1 [ISOXICAM],NE: No evidence of hepatotoxicity in any species
16,AUROTHIOGLUCOSE,HH: Evidence of human hepatotoxicity
17,O=C1OCCN1/N=C/c1ccc([N+](=O)[O-])o1 [FURAZOLIDONE],HH: Evidence of human hepatotoxicity
18,COc1c(N2CCNC(C)C2)c(F)cc2c(=O)c(C(=O)O)cn(C3CC3)c12 (stereo unspecified) [GATIFLOXACIN],WE: Weak evidence (<10 case reports) of human hepatotoxicity
19,CN(C)N=O [N-NITROSODIMETHYLAMINE],AH: Evidence for animal hepatotoxicity but not tested in humans
20,Nc1ccc(S(N)(=O)=O)cc1 [SULFANILAMIDE],HH: Evidence of human hepatotoxicity
21,C[C@H](C(=O)O)c1ccc2oc(-c3ccc(F)cc3)nc2c1 [FLUNOXAPROFEN],WE: Weak evidence (<10 case reports) of human hepatotoxicity
22,O=C1C(CC[S+]([O-])c2ccccc2)C(=O)N(c2ccccc2)N1c1ccccc1 (stereo unspecified) [SULFINPYRAZONE],HH: Evidence of human hepatotoxicity

row,Molecule,Hepatotoxicity
1,CC(C)(O)c1ccccc1CC[C@@H](SCC1(CC(=O)O)CC1)c1cccc(/C=C/c2ccc3ccc(Cl)cc3n2)c1 [MONTELUKAST],WE: Weak evidence (<10 case reports) of human hepatotoxicity
2,Cc1onc(-c2ccccc2Cl)c1C(=O)N[C@@H]1C(=O)N2[C@@H]1SC(C)(C)[C@@H]2C(=O)[O-].O.[Na+] [CLOXACILLIN SODIUM],HH: Evidence of human hepatotoxicity
3,NC(=O)N1c2ccccc2C=Cc2ccccc21 [CARBAMAZEPINE],HH: Evidence of human hepatotoxicity
4,CN(C)CCCN1c2ccccc2Sc2ccccc21.Cl [PROMAZINE HYDROCHLORIDE],WE: Weak evidence (<10 case reports) of human hepatotoxicity
5,Cc1nnc(NS(=O)(=O)c2ccc(N)cc2)s1 [SULFAMETHIZOLE],HH: Evidence of human hepatotoxicity
6,Clc1ccc2c(c1)C(N1CCNCC1)=Nc1ccccc1O2 [AMOXAPINE],WE: Weak evidence (<10 case reports) of human hepatotoxicity
7,OC(Cn1cncn1)(Cn1cncn1)c1ccc(F)cc1F [FLUCONAZOLE],HH: Evidence of human hepatotoxicity
8,C[C@](N)(Cc1ccc(O)c(O)c1)C(=O)O [METHYLDOPA],HH: Evidence of human hepatotoxicity
9,CC(=O)N(O)CCCCCNC(=O)CCC(=O)N(O)CCCCCNC(=O)CCC(=O)N(O)CCCCCN.CS(=O)(=O)O [DEFEROXAMINE MESYLATE],HH: Evidence of human hepatotoxicity
10,C[N+](C)(C)CC(=O)O.[Cl-] [BETAINE HYDROCHLORIDE],NE: No evidence of hepatotoxicity in any species
11,Oc1ccccc1Br,AH: Evidence for animal hepatotoxicity but not tested in humans
12,CCCN(CCC)C(=O)Cc1c(-c2ccc(Cl)cc2)nc2ccc(Cl)cn12 [ALPIDEM],HH: Evidence of human hepatotoxicity
13,O=S(=O)(O)O.Oc1cccc2cccnc12.Oc1cccc2cccnc12 [OXYQUINOLINE SULFATE],HH: Evidence of human hepatotoxicity
14,Cc1ccc(C)c(OCCCC(C)(C)C(=O)O)c1 [GEMFIBROZIL],HH: Evidence of human hepatotoxicity
15,"ClCCCl [1,2-DICHLOROETHANE]",AH: Evidence for animal hepatotoxicity but not tested in humans
16,O=C(O)c1cc(-c2ccccc2)nc2ccccc12 [CINCHOPHEN],HH: Evidence of human hepatotoxicity
17,GALLIUM NITRATE HYDRATE,NE: No evidence of hepatotoxicity in any species
18,"Clc1cc2c(cc1Cl)Oc1cc(Cl)c(Cl)cc1O2 [2,3,7,8-TETRACHLORODIBENZO-P-DIOXIN]",AH: Evidence for animal hepatotoxicity but not tested in humans
19,CO[C@@]1(NC(=O)C(C(=O)[O-])c2ccc(O)cc2)C(=O)N2C(C(=O)[O-])=C(CSc3nnnn3C)CO[C@@H]21.[Na+].[Na+] (stereo partly specified) [MOXALACTAM DISODIUM],NE: No evidence of hepatotoxicity in any species
20,CC1(C)S[C@@H]2[C@H](NC(=O)[C@H](NC(=O)N3CCN(S(C)(=O)=O)C3=O)c3ccccc3)C(=O)N2[C@H]1C(=O)[O-].[Na+] [MEZLOCILLIN SODIUM],HH: Evidence of human hepatotoxicity
21,ClC=C(Cl)Cl [TRICHLOROETHYLENE],AH: Evidence for animal hepatotoxicity but not tested in humans
22,O=C(O)c1cc(-c2ccc(F)cc2F)ccc1O [DIFLUNISAL],HH: Evidence of human hepatotoxicity
